According to PMC7170889, “Synthesis and evaluation of designed PKC modulators for enhanced cancer immunotherapy” (Nature Communications, 2020):
Where two headings read alike, the source gives them in different places.

Experiments:
[1] = system: CD22 surface expression in 2F7 cells; assay: CD22 surface expression in 2F7 cells (flow cytometry); conditions: 1 nM or 10 nM, 48 h, n = 6
Method: (§19) Compound was washed out and cells were sub-cultured for the indicated times. […] CD22 surface expression was then assayed by flow cytometry (n = 3 biological replicates; data presented as mean values ± SE). c JB cells were incubated with 1 nM (blue bars) or 10 nM (orange bars) of compound for 48 h. CD22 surface expression was then assayed by flow cytometry (n = 6 biological replicates; data presented as mean values ± SE). d 2F7 cells were incubated with 1 nM (blue bars) or 10 nM (orange bars) of compound for 48 h. CD22 surface expression was then assayed by flow cytometry (n = 6 biological replicates; data presented as mean values ± SE).
(§20) JB is an Epstein–Barr virus (EBV)-negative AIDS-lymphoma cell line originally grown out of a bone marrow sample derived from an HIV+ individual, which harbors the Burkitt lymphoma translocation[66]. 2F7 is an AIDS-associated non-Hodgkin’s lymphoma cell line of the Burkitt subtype, which is positive for EBV[67].
(§21) AIDS-NHL cell lines were incubated in IF10 medium, consisting of IMDM
(§22) medium (Life technologies) containing 10% fetal bovine serum (FBS, Omega Scientific), 100
(§23) units/mL of penicillin, and 100 μg/ml of streptomycin (Invitrogen). Cells were incubated at 37 °C
(§24) AIDS-NHL cells were cultured in a u-bottomed 96-well
(§25) tissue culture plates with a cell density of 200,000 cells/well in a 200 μL volume of IF10 media
(§26) were exposed to compound for the either 24 or 48 h before staining and flow cytometric analysis
(§27) Cells in each well were washed with phosphate buffered saline (PBS) containing
(§28) 2% FBS, then cells were centrifuged for 9 min at 233 xg and resuspended in 50 μL of a 1:1 dilution
(§29) of phosphate buffered saline (PBS): Human AB serum (Sigma).
(§30) cells were washed and fixed in 2% paraformaldehyde. Stained samples were stored at 4 °C.
(§31) cytometry samples were analyzed using a FACSCelesta (BD Biosciences) flow cytometer and data
(§32) were analyzed using FlowJo software (version 10).

PKC = PKC competitive binding assay, isoform not specified; set-up: species or system human
Method: (§1) With a panel of compounds bearing diverse functionality at C13, we began to explore how these modifications affect PKC binding and biological function. Because an obvious prerequisite for PKC pathway involvement is binding to PKC, compounds were initially evaluated for PKC affinity in a cell-free competitive binding assay with tritiated phorbol dibutyrate ([^3H]-PDBu). Assays were performed with representative members of both the conventional (PKCα) and novel (PKCδ) PKC families. Subsequently, compounds were assayed for PKC isoform translocation in real time in living cells using an optical assay. Translocation to the plasma membrane is the hallmark of PKC activation[18],[57],[60] and therefore monitoring the subcellular localization of a PKCδ-GFP fusion protein via confocal microscopy offers a convenient method for determining whether a compound enters a cell and engages its PKC isoform target. Finally and of clinical significance, we also determined the effect of compounds on CD22 surface expression in vitro in NALM6 cells, an ALL cell line previously studied in connection with CD22-targeted CAR T cell therapy, and two additional lymphoma cell lines[11],[31],[65].
(§2) PKC Binding Assay Protocol […]
(§3) competition with 3H-phorbol-12,13-dibutyrate (3H-PDBu) as described below. This procedure entails a glass-fiber filtration method to determine bound radioligand.
(§4) Preparation of PKC binding assay buffer
(§5) To a 50 mL polypropylene tube was added Tris-HCl (pH 7.4, 1 M, 1 mL), KCl (1 M, 2 mL), CaCl2 (0.1 M, 30 μL), and bovine serum albumin (BSA, 40 mg, Sigma-Aldrich). This mixture was diluted to 20 mL with deionized H2O and mixed gently. The buffer was stored on ice until use. The final […]
(§6) Supplementary Table1. PKC binding assay buffer composition.
(§7) Preparation of phosphatidylserine (PS) vesicles
(§8) For every two assays, 3.5 mg phosphatidylserine (Avanti Polar Lipids, porcine, 25 mg/mL CHCl3 solution) was concentrated by removing chloroform under a stream of nitrogen followed by reduced pressure. The solid PS was suspended as vesicles in freshly prepared PKC binding assay buffer (3.5 mL) by sonicating six times for 30 sec, with a 30 sec rest between sonications (Branson Sonifier 250, power = 2, 50% duty cycle). The resulting milky cloudy mixture (1 mg/mL) was stored […]
(§9) Preparation of PKC isoform solution
(§10) Assay PKC was prepared by dissolving a 4 μg aliquot of the indicated recombinant human PKC isoform (Invitrogen) into 11.6 mL of PKC binding assay buffer (this amount is sufficient for two assays). The diluted PKC was stored on ice for immediate use.
(§11) Preparation of 3H-PDBu solution
(§12) 3H-PDBu (American Radiolabeled Chemicals, Inc.; 1 mCi/mL acetone solution; specific activity: […]) was diluted 10-fold with DMSO. The resulting 500 nM stock solution was further diluted with DMSO to 30 nM.
(§13) Preparation of analog compound dilutions
(§14) Compound dilutions were prepared by serially diluting from a chosen "high" concentration by factors of 3 or 4. For each analog compound, seven concentrations were used to define the […]
(§15) To a polypropylene tube was added 3.3 mL of 1 mg/mL PS vesicles solution, 11 mL of PKC isoform solution, and 1.1 mL of 30 nM 3H-PDBu solution were added. The resulting solution was vortexed to mix and stored on ice.
(§16) PKC binding assay protocol
- Glass-fiber filters (Whatman GF/B) were prepared by soaking them in a solution of […]

PKCα = biological target: T1, PKCα (Homo sapiens, UniProt P17252); assay: PKC competitive binding assay with [3H]-phorbol dibutyrate (PKCα)
T1 construct: purchased Invitrogen
Method: as §1, §2, §3, §4, §5, §6, §7, §8, §9, §10, §11, §12, §13, §14, §15, §16
(§17) - Glass-fiber filters (Whatman GF/B) were prepared by soaking them in a solution of aqueous polyethyleneimine (10% by vol, 18 mL) in deionized water (600 mL) for ≥1h.
(§18) - 500 mL "rinsing buffer" of 20 mM Tris, pH 7.4 was cooled on ice for the duration of the incubation period and for the remainder of the assay.
Triplicate data points were obtained for each analog concentration. For each data point, 280 μL of "Master Mix" Solution and 20 μL of analog compound at a specified concentration were added to a polypropylene tube. Non-specific 3H-PDBu binding was assessed in triplicate by substitution

[2] = system: CD22 surface expression in JB cells; assay: CD22 surface expression in JB cells (flow cytometry); conditions: 1 nM or 10 nM, 48 h, n = 6
Method: as §19, §20, §21, §22, §23, §24, §25, §26, §27, §28, §29, §30, §31, §32

[3] = system: CD22 surface expression in NALM6 cells; assay: CD22 surface expression in NALM6 cells (flow cytometry); format: cell-based, human
Method: CD22 Surface Expression Protocol – NALM6 Cells […]
unless otherwise noted below) at 37 ° C in an incubator (5% CO2). Cell cultures were maintained […]
Cell suspension from a confluent T75 flask (Fisher) was transferred to a 15 mL falcon tube and centrifuged at 1100 rpm for 7 minutes. The supernatant was aspirated, and the cell pellet was […]
Cells were counted using a Countess II Automated Cell
199 µL of this stock was added to 24 wells (enough for triplicate measurements for 8 different experimental conditions) in a 96-well plate. Dosing was […]
each experiment. 1 µL of DMSO or the appropriate stock solution of compound in DMSO was added to each well. Cells were incubated for 24 hours, at which point the cell suspensions were transferred to 1.5 mL Eppendorf tubes and diluted with 1.0 mL of PBS (Hyclone, without Ca2+ or Mg2+). Samples were centrifuged at 2000 rpm for 5 min at RT. The supernatant was aspirated, […]
Cells were sub-cultured between 2 […]
surface expression was assayed by flow cytometry.
Cells from one well were counted using a Countess II Automated Cell Counter (Fisher). ~200,000 – 300,000 cells from each well were added to 1.5 mL Eppendorf tubes containing PBS (final volume ~1.2 mL). The cell suspensions were centrifuged at 1500 rpm for 7 minutes at 4 °C. The supernatant was aspirated, and the cell pellet was resuspended in 99 µL of pre-chilled FACS […]
buffer (0.5% w/v BSA in PBS). […]
minutes. Samples were then diluted with an additional 1.0 mL of FACS buffer and centrifuged at 1500 rpm for 7 minutes at 4 °C. The supernatant was aspirated, the cell pellets were resuspended in 200 µL FACS buffer, and the resulting suspensions were transferred to FACS tubes (Fisher, […]
Cells were stained with DAPI and CD22 surface expression was analyzed using the FACScan Analyzer at the Stanford Shared FACS Facility. Data analysis was performed using FlowJo and Microsoft Excel.

PKCδ-GFP fusion protein = biological target: T2, PKCδ-GFP fusion protein (Homo sapiens, UniProt Q05655); assay: PKCδ-GFP translocation assay in living CHO-k1 cells (confocal microscopy); format: cell-based, Chinese hamster; conditions: for Emax at 1 µM: CHO-K1, 1000 nM compound; for minimum effective concentration required to induce translocation of PKC-GFP to the membrane: tested at 200 and 1000 nM
T2 construct: expressed in transfected cells; host or cells: CHO-k1 (Chinese hamster ovary, ATCC)
T2 sequence (Q05655 whole entry, the tested form may be a part): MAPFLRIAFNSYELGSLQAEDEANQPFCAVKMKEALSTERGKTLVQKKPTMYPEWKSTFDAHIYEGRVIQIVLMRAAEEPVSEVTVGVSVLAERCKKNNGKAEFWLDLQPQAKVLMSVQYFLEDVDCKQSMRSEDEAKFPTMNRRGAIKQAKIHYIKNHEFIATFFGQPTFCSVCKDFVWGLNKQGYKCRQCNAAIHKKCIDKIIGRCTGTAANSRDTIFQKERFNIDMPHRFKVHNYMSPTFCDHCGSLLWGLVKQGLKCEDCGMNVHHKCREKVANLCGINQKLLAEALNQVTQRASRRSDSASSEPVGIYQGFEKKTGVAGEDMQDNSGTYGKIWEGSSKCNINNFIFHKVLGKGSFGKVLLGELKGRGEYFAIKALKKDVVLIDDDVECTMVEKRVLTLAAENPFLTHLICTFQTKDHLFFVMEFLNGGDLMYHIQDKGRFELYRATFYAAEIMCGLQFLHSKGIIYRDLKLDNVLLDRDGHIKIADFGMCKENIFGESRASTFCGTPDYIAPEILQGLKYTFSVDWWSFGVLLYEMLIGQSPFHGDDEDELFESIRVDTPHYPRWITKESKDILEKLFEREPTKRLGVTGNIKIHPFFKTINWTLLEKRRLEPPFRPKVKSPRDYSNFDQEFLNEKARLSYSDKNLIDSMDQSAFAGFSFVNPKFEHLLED
Method: as §1
Scale bar represents 25 μm. Experiments performed in n = 3 biological replicates. b–d Cytosolic fluorescence normalized to t = 0 (time immediately prior to addition of compound to media) and plotted against time. Error bars excluded for clarity (data presented as the mean of n = 3 biological replicates). Individual curves with error bars included in Supplementary Information.
PKCδ-GFP Translocation Assay Protocol
Chinese hamster ovary factor K1 (CHO-k1, ATCC) cells were cultured in F-12 Kaighn’s media (Hyclone, 10% fetal bovine serum, 1% penicillin/streptomycin added, reffered to as F-12 +/+ below) at 37 ° C in an incubator (5% CO2). Cell cultures were maintained by splitting cells 1:3 when they reached ~75-100% confluence (every 2-3 days) as follows:
(Gibco) was used to remove the cells from the culture flask (T75, Falcon). 1 mL of the cell suspension was then added to 9 mL of fresh F-12 +/+ and the sample was sub-cultured until reaching confluence (~2-3 days).
Cells were counted using a Countess II Automated Cell Counter (Fisher). The cell suspension was diluted to 240,000 cells/mL with fresh F-12 +/+ and 2.5 mL of this diluted stock was added to one well in a 6-well plate. The cells were then cultured for 24 hours.
Cells were transfected with Lipofectamine 2000 reagent (Invitrogen) or DA 13:11 at a 10:1 charge […]
F-12 +/+ was aspirated and cells were washed with F-12 -/-. 2 mL of fresh F-12 -/- was then added to each well, taking care not to disturb adherent cells. For each well of CHO-k1 cells, 12.5 µL Lipofectamine 2000 reagent (Invitrogen) was added to 250 µL Opti-MEM reduced serum media (Invitrogen) in a polypropylene tube and incubated for 20 minutes at RT. Meanwhile, for each well, 4 µg of PKCδ-GFP pDNA and 250 µL Opti-MEM reduced serum media was added to a separate polypropylene tube. 250 µL of the Lipofectamine 2000 suspension was added to the DNA suspension and the solution incubated for 30 minutes at RT. 500 µL of the Lipofectamine/DNA suspension was added to the respective wells of the 6-well plate. The cells were then incubated at 37 ° C (5% CO2) for ~24 hrs.
F-12 +/+ was aspirated and cells were washed with F-12 -/-. 2.4 mL of fresh F-12 -/- was then added to each well, taking care not to disturb adherent cells. A 4 µg aliquot of PKCδ-GFP pDNA was added to PBS (pH 5.5, final volume 100 µL). 5.6 µL of DA 13:11 (2 mM stock in DMSO) was then added to the DNA solution, and the mixture was gently mixed (by flicking) for 20 seconds, at which point it was added directly to the respective wells of the 6-well plate.

PKCδ = biological target: T3, PKCδ (Homo sapiens, UniProt Q05655); assay: PKC competitive binding assay with [3H]-phorbol dibutyrate (PKCδ); conditions: cell-free, competition with [3H]-PDBu, PS vesicles
T3 construct: purchased Invitrogen
T3 sequence (Q05655 whole entry): as the sequence (Q05655 whole entry, the tested form may be a part) above
Method: as §1, §2, §3, §4, §5, §6, §7, §8, §9
Assay PKC was prepared by dissolving a 4 μg aliquot of the indicated recombinant human PKC isoform (Invitrogen) into 11.6 mL of PKC binding assay buffer (this amount is sufficient for two assays). The diluted PKC was stored on ice for immediate use. […]
μCi/mmol) was diluted 10-fold with DMSO. The resulting 500 nM stock solution was further diluted with DMSO to 30 nM.
as §13, §14, §15, §16, §17, §18
Triplicate data points were obtained for each analog concentration. For each data point, 280 μL of "Master Mix" Solution and 20 μL of analog compound at a specified concentration were added to a polypropylene tube. Non-specific 3H-PDBu binding was assessed in triplicate by substitution […]
μM). Maximal 3H-PDBu binding was assessed in triplicate by substitution of the analog compound with 20 μL DMSO. The solutions were vortexed to mix, incubated at 37 °C for 10 min, and […]

[4] = CHO-k1 cells, n = 3, read-out: % Translocation (maximum translocation of PKCδ-GFP to the plasma membrane)
[5] = cell-free, competition with [3H]-PDBu, PS vesicles, read-out: Ki PKCα

Structure (SMILES)	upregulation of CD22 surface expression [1]	upregulation of CD22 surface expression [2]	Emax at 1 µM (PKCδ-GFP fusion protein; [4])	minimum effective concentration required to induce translocation of PKC-GFP to the membrane (PKCδ-GFP fusion protein; CHO-k1 cells)	Ki (PKCδ)	Ki (PKCα; [5])	further results
CCC/C=C/C=C/C(=O)O[C@H]1/C(=C/C(=O)OC)C[C@H]2C[C@H]([C@@H](C)O)OC(=O)C[C@H](O)C[C@@H]3C[C@H](OC(C)=O)C(C)(C)[C@](O)(C[C@@H]4C/C(=C/C(=O)OC)C[C@H](/C=C/C(C)(C)[C@]1(O)O2)O4)O3 [Bryostatin 1, reference compound]	~ 2 fold	~ 2 fold					PKC binding affinity in words (PKC; conventional and novel PKC isoforms): single-digit nanomolar; Ki (PKCα): 0.8 nM; duration of sustained increase in CD22 surface expression following treatment ([3]; NALM6 cells, 10 nM for 24 h, then washout and sub-culture): up to 7 days; increase in CD22 surface density ([3]; NALM6 cells, 24 h incubation, Fig. 6): > 2 fold
CCCC=CC=CC(=O)OC1C(=CC(=O)OC)CC2CC(C(C)O)OC(=O)CC(O)CC3CC(OC(C)=O)C(C)(C)C(O)(CC4CC(OC(=O)CN(C)C)CC(C=CC(C)(C)C1(O)O2)O4)O3 (centres unmarked) [SUW212]			50%	1000 nM	24 nM	40 nM	sustained translocation of PKC (PKCδ-GFP fusion protein; at up to 1000 nM): did not achieve sustained translocation of PKC; decrease in affinity to PKC (PKC; charged substituents at C13, Table 1 data): 20-100 fold
CCCC=CC=CC(=O)OC1C(=CC(=O)OC)CC2CC(C(C)O)OC(=O)CC(O)CC3CC(OC(C)=O)C(C)(C)C(O)(CC4CC(=CC(=O)OCc5ccccc5)CC(C=CC(C)(C)C1(O)O2)O4)O3 (centres unmarked) [SUW219]			60%	1000 nM	25 nM	37 nM	decrease in affinity to PKC (PKC; benzyl enoates, (Z) olefin geometry, comparator not stated): ~ 2 fold
C=CCOC(=O)/C=C1/C[C@H]2C[C@]3(O)O[C@H](C[C@@H](O)CC(=O)O[C@@H]([C@@H](C)O)C[C@@H]4C/C(=C\C(=O)OC)[C@H](OC(=O)/C=C/C=C/CCC)[C@@](O)(O4)C(C)(C)/C=C/[C@@H](C1)O2)C[C@H](OC(C)=O)C3(C)C [SUW229]	~ 2 fold	~ 2 fold		200 nM			Emax at 0.2 µM (PKCδ-GFP fusion protein; CHO-K1, 200 nM compound, CHO-k1 cells, n = 3, read-out: % Translocation (maximum translocation of PKCδ-GFP to the plasma membrane)): 50%; PKC activation dynamics (shape of translocation curve) (PKCδ-GFP fusion protein; Fig. 5c, d): more sustained linear activation dynamics; fold induction at 0.001 µM ([3]; Homo sapiens, NALM-6, 24 h, NALM6 cells at 1 nM relative to DMSO control, 24 h incubation, washout, 24 h sub-culture, n = 3, read-out: Fold increase CD22 expression): 2.35
CCCC=CC=CC(=O)OC1C(=CC(=O)OC)CC2CC(C(C)O)OC(=O)CC(O)CC3CC(OC(C)=O)C(C)(C)C(O)(CC4CC(=CC(=O)OC)CC(C=CC(C)(C)C1(O)O2)O4)O3 (centres unmarked) [SUW201]	~ 2 fold	~ 2 fold					Ki (PKCα; read-out: Ki PKCα, cell-free, competition with [3H]-PDBu, PS vesicles): 0.54 nM
